Data as given in patent publication US20260294863A1, “METHOD OF TREATING FIBROTIC-RELATED CONDITION” (YISSUM RESEARCH DEVELOPMENT COMPANY OF THE HEBREW …, priority 2023, published 2026).
Entries after “also recorded” stand apart in the source; their conditions may differ.

Assays:
TNFα [1] = experiment: Secretion of TNFα from BzATP/LPS-activated microglia (ELISA); format: cell-based, Balb/C mice
Experimental: Experiments were performed on primary microglial cells isolated from brains of neonatal Balb/C mice as previously described (Reichert and Rotshenker, 2003). The brains were stripped of their meninges and enzymatically dissociated. Cells were plated on Poly-L-lysine coated flasks for one week, re-plated for 1- to 2-hr on bacteriological plates and non-adherent cells were washed away. Microglia were propagated by incubation in 20% of medium, conditioned by the L-cell line that produces mouse-CSF. They were identified by morphology and positive immune-reactivity to P2y12, F4/80, complement receptor-3 and Galectin-3/MAC-2 (Reichert and Rotshenker 2003; Gitik et al. 2011).
Cytokines were measured as previously described (Shamash et al. 2002) using ELISA Max deluxe set (Biolegend, CA, USA) for secreted TNFα and IL-6 proteins and ELISA DuoSet (R&D systems, UK) for secreted and cell associated IL-1β, according to manufacturer's instructions.
The effect of ladostigil at concentrations of 1×10^−13 M to 1×10^−9 M on the secretion of cytokine proteins was assessed by adding it to microglia for 2 hr before LPS (0.75 μg/ml) and BzATP (400 μM). Other microglia were treated similarly with the steroid, budesonide as a reference standard at concentrations of 1× 10^−13 to 1× 10^−11 M. Measurements of cytokine secretion were performed 8 hrs after addition of LPS and BzATP. Since the levels of secreted IL-1β were still low, samples were concentrated 2- to 4-fold by an Amicon ultra-centrifugal filter device (Merck-Millipore, Ireland). ELISA was used to quantify the levels of cytokine proteins. Protein content in the microglia lysate was measured by Bradford and levels of cytokines were calculated and presented as pg/μg of microglial protein.

[2] = Mortality in bleomycin-induced lung fibrosis; format: in vivo, C57BL/6JOlaHsd mice
Experimental: The animal model of bleomycin-induced lung fibrosis is widely used to characterize the potential inhibitory effect of newly developed drugs (Distler et al. 2019). Experiments were performed in C57BL/6JOlaHsd male and female mice aged 12-13 weeks. Male mice weighed 23-27.3 g and female mice, 19.4-21.1 g. They were housed under pathogen-free conditions, up to 6 per cage, in IVC cages under a controlled temperature of 22-24° C., humidity and alternating 12-h light/dark cycles and provided with food and water ad libitum. […] Saline (2-3/sex) and bleomycin controls were anesthetized as described above. Bleomycin solution (0.25 mg/kg in 50 μl) was instilled into the lumen of the trachea as shown in a video by Ehrentraut et al. (2019). […] Mice were weighed daily and sacrificed on day 21. Bronchial fluid was collected as described in Ehrentraut et al. (2019). TNFα and IL-6 in the bronchial fluid lavage was measured by ELISA as described in the preceding section.

TNFα [3] = experiment: TNFα in bronchial fluid, bleomycin-induced lung fibrosis (ELISA); format: in vivo, C57BL/6JOlaHsd mice; details: ladostigil, bleomycin-induced lung fibrosis
Experimental: The animal model of bleomycin-induced lung fibrosis is widely used to characterize the potential inhibitory effect of newly developed drugs (Distler et al. 2019). Experiments were performed in C57BL/6JOlaHsd male and female mice aged 12-13 weeks. Male mice weighed 23-27.3 g and female mice, 19.4-21.1 g. They were housed under pathogen-free conditions, up to 6 per cage, in IVC cages under a controlled temperature of 22-24° C., humidity and alternating 12-h light/dark cycles and provided with food and water ad libitum. In order to minimize the stress of daily injection, ladostigil (5 mg/Kg/day) was administered by micro-osmotic pumps, implanted subcutaneously under ketamine/xylazine anesthesia, 5 days before administration of bleomycin, and delivered for 3 weeks to mice of each sex. Saline (2-3/sex) and bleomycin controls were anesthetized as described above. Bleomycin solution (0.25 mg/kg in 50 μl) was instilled into the lumen of the trachea as shown in a video by Ehrentraut et al. (2019). […] TNFα and IL-6 in the bronchial fluid lavage was measured by ELISA as described in the preceding section.
Experiments were performed in C57BL/6JOlaHsd male mice aged 12-13 weeks as described for ladostigil. […] Fibrosis was measured by staining with Sirius red as described for ladostigil. TNFα and IL-6 in the bronchial fluid lavage was measured by ELISA as described for ladostigil.

skin sclerosis = experiment: Dermal and hypodermal thickness in bleomycin-induced skin sclerosis; format: in vivo, C57BL/6 mice; details: ladostigil 10 mg/kg/day + bleomycin; p<0.05
Experimental: Male C57BL/6 mice aged 8 weeks were housed under pathogen-free conditions at a controlled temperature of 22-24° C., humidity and alternating 12-h light/dark cycles and provided with food and water ad libitum. Skin sclerosis was induced as described by Ravanetti et al, (2020). A small incision was made in the skin at the back caudal to the scapulae and subcutaneous pocket was created into which an Alzet micro-osmotic pump was implanted, and the incision closed with two stiches and a surgical clip. The pumps contained bleomycin, (delivered at the rate of 60 U/kg body weight) or saline (control) and were removed 10 days after implantation. The mice were monitored daily until they recovered completely and weighed twice weekly from the beginning of the experiment.
Ladostigil (10 mg/kg/day) was administered in the drinking fluid to 10 mice, housed 2/cage, from 3 days before bleomycin pump installation until the end of the experiment. The fluid intake of the mice was measured daily. The dose of ladostigil was adjusted accordingly. Bleomycin alone, (10 mice) and saline controls (6 mice) received regular drinking fluid.
Skin was harvested on the gluteal region to avoid dermal fibrosis artifact due to proximity to the site of implant. For histological assessment, the samples were dehydrated in a graded ethanol series, clarified in xylene, and paraffin embedded. They were mounted on slides and paraffin was removed. Sections of 5 μm thickness were cut with a rotary microtome and stained with hematoxylin and eosin (H&E)

In the case of `C#CCN[C@@H]1CCc2ccc(OC(=O)N(C)CC)cc21` [Ladostigil, 6-(N-ethyl, N-methylcarbamyloxy)-N propargyl-1 (R)-aminoindan hemitartrate], the minimal effective concentration (TNFα [1]; Mus musculus, microglia, BzATP/LPS, medium containing BSA, 8 hrs, read-out: lowest concentration that significantly decreased TNFα secretion) is reported as 1e-07 µM, the “reduction of TNFα release” value (TNFα [1]; all concentrations tested, added 2 hrs before BzATP and LPS, 0.1% BSA, p<0.01) is reported as “reduced the 3 cytokines significantly” and the mortality ([2]; females, ladostigil+bleomycin, 2.5 mg/kg (2/10)) is reported as 20%. The mortality ([2]; females, ladostigil+bleomycin, 5 mg/kg (1/20)) was 5%, the “mortality (animals died/total)” value ([2]; females, ladostigil+bleomycin, dose not given) was 1/11 and the mortality ([2]; males, bleomycin+ladostigil 5 mg/kg, day 17 (2/9)) was 22%. The mortality ([2]; males, ladostigil 10 mg/kg, day 17 (1/11)) was 9%, the “TNFα in bronchial fluid” value (TNFα [3]) was “generally not affected; also recorded: did not reduce” and the dermal thickness (skin sclerosis) was “significant reduction of dermal thickness”. For the same molecule, the hypodermal thickness (skin sclerosis) was “increase of hypodermal thickness”.
